For this experiment, the system named is MX-1 breast xenograft, intrarenal, nude mice, tumor weight. The experiment in a line: NCI In Vivo Anticancer Drug Screen. Data for tumor model Human Mammary Carcinoma MX-1 Xenograft (intrarenal inoculation) in NU/NU BALB/C (nude) mice. As to conditions: endpoint: mean tumor weight change, higher = larger tumour. The gist of the method: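 Compounds were given to mice carrying transplanted tumors, and tumor size or survival was measured. Each value is the treated-group measurement (T) divided by the vehicle-treated control-group measurement (C).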
On the technique in general: A xenograft is tissue or cells of one species grown in another, often human tumour cells in immunodeficient mice.

Where [1] appears, read: dose: 600.0 mg/kg/injection, schedule: Q04DX003 (sc), vehicle: saline.
Setting [2] is: dose: 150.0 mg/kg/injection, schedule: Q04DX003 (ip), vehicle: saline with Tween-80.

“And” between values parts separate entries of the source, which are not always exact repeats. Identical values can stand only once. Results filed as inconclusive are left out.

As to `CN(Cc1cnc2nc(N)nc(N)c2n1)c1ccc(C(=O)NC(CCC(=O)OCc2cc3c(cc2Cl)OCO3)C(=O)OCc2cc3c(cc2Cl)OCO3)cc1` (centres undefined), for the setting “dose: 7.5 mg/kg/injection, schedule: Q04DX003 (ip), vehicle: saline with Tween-80”, the T/C was 75 % of control.
For `CC1OC2CC(O)C1(O)C1=C2C(O)=C(C(N)=O)C(=N)C1=O` (centres undefined), the T/C reads like this: (dose: 0.62 mg/kg/injection, schedule: Q04DX003 (ip), vehicle: saline) 99 % of control; (dose: 1.25 mg/kg/injection, schedule: Q04DX003 (ip), vehicle: saline) 62 % of control; (dose: 2.5 mg/kg/injection, schedule: Q04DX003 (ip), vehicle: saline) 101 % of control.
Take `CN(Cc1cnc2nc(N)nc(N)c2n1)c1ccc(C(=O)N[C@@H](CCC(=O)O)C(=O)O)cc1`: the T/C runs as follows: (dose: 3.0 mg/kg/injection, schedule: Q04DX003 (sc), vehicle: sodium bicarbonate) 152 % of control; (dose: 6.0 mg/kg/injection, schedule: Q04DX003 (sc), vehicle: sodium bicarbonate) 162 % of control; (dose: 12.0 mg/kg/injection, schedule: Q04DX003 (sc), vehicle: sodium bicarbonate) 112 % of control; (dose: 18.0 mg/kg/injection, schedule: Q04DX003 (ip), vehicle: sodium bicarbonate) 55 % of control; (dose: 24.0 mg/kg/injection, schedule: Q04DX003 (sc), vehicle: sodium bicarbonate) 80 % of control.
Turning to `CCC(NC(N)=O)C(CC)NC(N)=O` (centres undefined), the T/C reads like this: (dose: 6.25 mg/kg/injection, schedule: Q04DX003 (ip), vehicle: saline with Tween-80) 89 % of control; (dose: 12.5 mg/kg/injection, schedule: Q04DX003 (ip), vehicle: saline with Tween-80) 78 % of control; (dose: 25.0 mg/kg/injection, schedule: Q04DX003 (ip), vehicle: saline with Tween-80) 74 % of control.
As to `CC[PH+](CC)CC[S-].CC[PH+](CC)CC[S-].[Au+].[Au+]`, the T/C (dose: 40.0 mg/kg/injection, schedule: Q04DX003 (sc), vehicle: Klucel (hydroxypropylcellulose) (HPC)) is 87 % of control; the T/C (dose: 80.0 mg/kg/injection, schedule: Q04DX003 (sc), vehicle: Klucel (hydroxypropylcellulose) (HPC)) is 69 % of control; the T/C (dose: 160.0 mg/kg/injection, schedule: Q04DX003 (sc), vehicle: Klucel (hydroxypropylcellulose) (HPC)) was 55 % of control; the T/C (dose: 320.0 mg/kg/injection, schedule: Q04DX003 (sc), vehicle: Klucel (hydroxypropylcellulose) (HPC)) is 80 % of control.
For `CC(C)C(N)C(=O)Nc1nncs1` (centres undefined), the T/C is, setting by setting: (dose: 150.0 mg/kg/injection, schedule: Q04DX003 (sc), vehicle: saline) 73 % of control; (dose: 300.0 mg/kg/injection, schedule: Q04DX003 (sc), vehicle: saline) 77 % of control; under setting [1], 86 % of control; (dose: 1200.0 mg/kg/injection, schedule: Q04DX003 (sc), vehicle: saline) 46 % of control.
For `CCCC1CCC(=C2C(=O)CCC2=O)O1` (centres undefined), under setting [2], the T/C is 68 % of control.
As for `CC(=O)C(=O)O.CC(=O)C(=O)O.[NH-]C1CCCCC1[NH-].[Pt+2]` (centres undefined), the T/C (dose: 12.5 mg/kg/injection, schedule: Q04DX003 (sc), vehicle: other) is 72 % of control; the T/C (dose: 25.0 mg/kg/injection, schedule: Q04DX003 (sc), vehicle: other) was 17 % of control; the T/C (dose: 50.0 mg/kg/injection, schedule: Q04DX003 (sc), vehicle: other) is -78 % of control.
With `O=C1C2C3C=CC(C2C(=O)N1CO)C1C2C(=O)N(CO)C(=O)C2C31` (centres undefined), the T/C (dose: 37.5 mg/kg/injection, schedule: Q04DX003 (ip), vehicle: water) was 110 % of control and the T/C (dose: 75.0 mg/kg/injection, schedule: Q04DX003 (ip), vehicle: water) was 71 % of control.
Turning to `Nc1nc(=S)c2[nH]cnc2[nH]1`, the T/C (dose: 1.6 mg/kg/injection, schedule: Q01DX010 (sc), vehicle: Klucel (hydroxypropylcellulose) (HPC)) was 50 % of control.
In the case of `CCN(CC)CCC(=O)OC(C(=O)O[C@H]1C[C@@]2(O)C(OC(=O)c3ccccc3)C3C4(OC(C)=O)COC4C[C@H](O)[C@@]3(C)C(=O)[C@H](OC(C)=O)C(=C1C)C2(C)C)C(NC(=O)c1ccccc1)c1ccccc1` (some centres undefined), the T/C by setting is: (dose: 4.5 mg/kg/injection, schedule: Q01DX009 (ip), vehicle: water) -100 % of control; (dose: 9.0 mg/kg/injection, schedule: Q01DX009 (ip), vehicle: water) -100 % of control; (dose: 18.0 mg/kg/injection, schedule: Q01DX009 (ip), vehicle: water) -100 % of control.
Turning to `CCN(CC)CC(C)(C)C(=O)/C=C/c1ccc(/C=C/C(=O)C(C)(C)CN(CC)CC)cc1`, where the note is “dose: 60.0 mg/kg/injection, schedule: Q04DX003 (ip), vehicle: saline”, the T/C was 67 % of control.
Consider `NC(=O)SCC(N)C(=O)O` (centres undefined), for which the T/C is, setting by setting: (dose: 300.0 mg/kg/injection, schedule: Q04DX003 (ip), vehicle: saline) 88 % of control; (dose: 400.0 mg/kg/injection, schedule: Q04DX003 (sc), vehicle: saline) 49 % of control; (dose: 600.0 mg/kg/injection, schedule: Q04DX003 (ip), vehicle: saline) 80 % of control; under setting [1], 37 % of control and 52 % of control; (dose: 750.0 mg/kg/injection, schedule: Q04DX003 (sc), vehicle: saline) 53 % of control; (dose: 900.0 mg/kg/injection, schedule: Q04DX003 (sc), vehicle: saline) 16 % of control and 38 % of control.
As for `C=C/C(C)=C/[C@H](C)C(=O)C[C@H](O)CC1CC(=O)NC(=O)C1`, the T/C is 73 % of control (dose: 300.5 mg/kg/injection, schedule: Q04DX003 (sc), vehicle: water); 98 % of control (dose: 600.0 mg/kg/injection, schedule: Q04DX003 (sc), vehicle: water); 89 % of control (dose: 1200.0 mg/kg/injection, schedule: Q04DX003 (sc), vehicle: water).
In the case of `CCN(CC)CC(=O)O[C@]1(CC)C(=O)OCc2c1cc1n(c2=O)Cc2cc3ccccc3nc2-1`, the T/C is, setting by setting: (dose: 2.0 mg/kg/injection, schedule: Q04DX003 (ip), vehicle: other) 35 % of control; (dose: 2.0 mg/kg/injection, schedule: Q04DX003 (ip), vehicle: water) 29 % of control; (dose: 4.0 mg/kg/injection, schedule: Q04DX003 (ip), vehicle: other) 19 % of control; (dose: 4.0 mg/kg/injection, schedule: Q04DX003 (ip), vehicle: water) 13 % of control; (dose: 8.0 mg/kg/injection, schedule: Q04DX003 (ip), vehicle: other) 1 % of control; (dose: 16.0 mg/kg/injection, schedule: Q04DX003 (ip), vehicle: other) -56 % of control. Besides, the T/C (dose: 16.0 mg/kg/injection, schedule: Q04DX003 (ip), vehicle: water) was -100 % of control.
Take `CCS/C(SC)=C(/c1ccccc1)[P+](c1ccccc1)(c1ccccc1)c1ccccc1`: the T/C reads like this: (dose: 9.38 mg/kg/injection, schedule: Q04DX003 (sc), vehicle: Klucel (hydroxypropylcellulose) (HPC)) 92 % of control; (dose: 18.75 mg/kg/injection, schedule: Q04DX003 (sc), vehicle: Klucel (hydroxypropylcellulose) (HPC)) 111 % of control; (dose: 37.5 mg/kg/injection, schedule: Q04DX003 (sc), vehicle: Klucel (hydroxypropylcellulose) (HPC)) 75 % of control.
With `O=c1c(O)c(-c2cc(O)c(O)c(O)c2)oc2cc(O)cc(O)c12`, the T/C is 95 % of control (dose: 50.0 mg/kg/injection, schedule: Q04DX003 (sc), vehicle: saline with Tween-80); 111 % of control (dose: 100.0 mg/kg/injection, schedule: Q04DX003 (sc), vehicle: saline with Tween-80); 115 % of control (dose: 200.0 mg/kg/injection, schedule: Q04DX003 (sc), vehicle: saline with Tween-80); 179 % of control (dose: 400.0 mg/kg/injection, schedule: Q04DX003 (sc), vehicle: saline with Tween-80).
Consider `N=C1CCCS1`, for which the T/C is 108 % of control (dose: 18.75 mg/kg/injection, schedule: Q04DX003 (sc), vehicle: saline); 91 % of control (dose: 37.5 mg/kg/injection, schedule: Q04DX003 (sc), vehicle: saline); 124 % of control (dose: 75.0 mg/kg/injection, schedule: Q04DX003 (sc), vehicle: saline).
On to `C=C(C)C1C2CC3(C)C4(CO4)C4OC4C3(O)C1C(=O)O2` (centres undefined), for which the T/C (dose: 0.15 mg/kg/injection, schedule: Q04DX003 (ip), vehicle: Klucel (hydroxypropylcellulose) (HPC)) is 116 % of control; the T/C (dose: 0.31 mg/kg/injection, schedule: Q04DX003 (ip), vehicle: Klucel (hydroxypropylcellulose) (HPC)) was 86 % of control; the T/C (dose: 0.62 mg/kg/injection, schedule: Q04DX003 (ip), vehicle: Klucel (hydroxypropylcellulose) (HPC)) is 106 % of control.
As for `CSc1ncnc2c1ncn2C1OC(CO)C(O)C1O` (centres undefined), the T/C reads like this: (dose: 75.0 mg/kg/injection, schedule: Q04DX003 (sc), vehicle: saline + alcohol) 1 % of control; (dose: 150.0 mg/kg/injection, schedule: Q04DX003 (sc), vehicle: saline + alcohol) -97 % of control.
Take `CN=C(N)N/N=C(\C)c1ccc2sc3ccc(/C(C)=N/NC(N)=NC)cc3c2c1`: the T/C reads like this: under setting [2], 90 % of control; (dose: 300.0 mg/kg/injection, schedule: Q04DX003 (ip), vehicle: saline with Tween-80) 59 % of control.
